According to patent US9145392B2, “Imidazole amines as modulators of kinase activity” (Merck Patent GmbH, priority 2011, dated 2015):
Where two headings read alike, the source gives them in different places.

What was measured:
[1] = target: P70S6K (T412E mutant) (Homo sapiens (Human), UniProt P23443, T412E); assay: P70S6K enzyme assay; type: biochemical
Procedure, shortened: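 Phosphorylated product and substrate peptide separated by microfluidic capillary electrophoresis (Caliper LabChip 3000), product peaks resolving before substrate.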

[2] = target: His-AKT (Full Length) (Homo sapiens (Human), UniProt P31749); assay: AKT enzyme assay; type: biochemical
Chain of His-AKT (Full Length) (P31749 whole entry): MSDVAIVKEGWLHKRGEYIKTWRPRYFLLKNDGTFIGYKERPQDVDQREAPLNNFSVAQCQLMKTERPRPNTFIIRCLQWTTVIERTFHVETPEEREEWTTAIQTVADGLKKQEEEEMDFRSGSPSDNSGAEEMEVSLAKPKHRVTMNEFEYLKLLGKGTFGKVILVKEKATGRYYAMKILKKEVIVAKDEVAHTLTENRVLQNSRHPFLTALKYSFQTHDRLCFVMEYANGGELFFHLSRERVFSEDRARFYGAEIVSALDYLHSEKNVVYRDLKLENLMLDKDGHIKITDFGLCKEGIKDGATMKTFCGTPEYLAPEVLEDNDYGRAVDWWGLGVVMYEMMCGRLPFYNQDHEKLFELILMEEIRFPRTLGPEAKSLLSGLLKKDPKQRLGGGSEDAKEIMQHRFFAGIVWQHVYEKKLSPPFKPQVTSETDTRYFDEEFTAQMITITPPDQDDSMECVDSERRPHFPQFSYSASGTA

Chain of P70S6K (T412E mutant) (P23443 whole entry T412E): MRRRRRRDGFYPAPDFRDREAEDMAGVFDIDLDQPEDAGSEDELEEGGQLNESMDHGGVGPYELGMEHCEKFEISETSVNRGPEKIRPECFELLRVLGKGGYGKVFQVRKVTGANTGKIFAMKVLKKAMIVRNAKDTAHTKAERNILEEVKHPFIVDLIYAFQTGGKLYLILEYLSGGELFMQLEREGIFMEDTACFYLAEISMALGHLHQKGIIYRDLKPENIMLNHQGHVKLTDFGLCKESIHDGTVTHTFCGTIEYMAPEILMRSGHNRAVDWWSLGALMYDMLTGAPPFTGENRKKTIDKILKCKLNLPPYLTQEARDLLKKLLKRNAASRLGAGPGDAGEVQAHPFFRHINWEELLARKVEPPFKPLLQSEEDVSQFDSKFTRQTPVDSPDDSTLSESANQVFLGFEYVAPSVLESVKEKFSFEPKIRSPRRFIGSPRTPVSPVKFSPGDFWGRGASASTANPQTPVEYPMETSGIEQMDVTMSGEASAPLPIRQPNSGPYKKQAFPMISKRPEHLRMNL

Row | IC50 ([1]; read-out: IC50 p70S6K) [nM] | IC50 ([2]; read-out: IC50 AKT) [nM] | IC50 ([1]; read-out: IC50 (p70S6K enzyme)) [nM] | IC50 ([2]; read-out: IC50 (AKT enzyme)) [nM] | SMILES
1 | 5.2 | 280 | – | – | CCc1c(N)ncnc1N1CCC(c2nc(-c3ccc(F)c(C(F)(F)F)c3)cn2C[C@@H]2CCN2)CC1 [Compound 152, (S)-6-(4-(1-(azetidin-2-ylmethyl)-4-(4-fluoro-3-(trifluoromethyl)phenyl)-1H-imidazol-2-yl)piperidin-1-yl)-5-ethylpyrimidin-4-amine]
2 | 10 | 220 | – | – | NC(=O)c1c(N)ncnc1N1CCC(c2nc(-c3ccc(F)c(C(F)(F)F)c3)cn2CC2CCCN2)CC1 (centres unmarked) [Compound 153, 4-amino-6-(4-(4-(4-fluoro-3-(trifluoromethyl)phenyl)-1-(pyrrolidin-2-ylmethyl)-1H-imidazol-2-yl)piperidin-1-yl)pyrimidine-5-carboxamide]
3 | 3 | 480 | – | – | NC(=O)c1c(N)ncnc1N1CCC(c2nc(-c3ccc(F)c(C(F)(F)F)c3)cn2C2CCNCC2)CC1 [Compound 154, 4-amino-6-(4-(4-(4-fluoro-3-(trifluoromethyl)phenyl)-1-(piperidin-4-yl)-1H-imidazol-2-yl)piperidin-1-yl)pyrimidine-5-carboxamide]
4 | 0.9 | 160 | – | – | N#Cc1c(N)ncnc1N1CCC(c2nc(-c3ccc(F)c(C(F)(F)F)c3)cn2C2CCNCC2)CC1 [Compound 155, 4-amino-6-(4-(4-(4-fluoro-3-(trifluoromethyl)phenyl)-1-(piperidin-4-yl)-1H-imidazol-2-yl)piperidin-1-yl)pyrimidine-5-carbonitrile]
5 | 4.9 | 81 | – | – | CN1CC(Cn2cc(-c3ccc(F)c(C(F)(F)F)c3)nc2C2CCN(c3ncnc(N)c3C(N)=O)CC2)C1 [Compound 156, 4-amino-6-(4-(4-(4-fluoro-3-(trifluoromethyl)phenyl)-1-((1-methylazetidin-3-yl)methyl)-1H-imidazol-2-yl)piperidin-1-yl)pyrimidine-5-carboxamide]
6 | 2 | 190 | – | – | CCc1c(N)ncnc1N1CCC(c2nc(-c3ccc(F)c(C(F)(F)F)c3)cn2C2CCNCC2)CC1 [Compound 157, 5-ethyl-6-(4-(4-(4-fluoro-3-(trifluoromethyl)phenyl)-1-(piperidin-4-yl)-1H-imidazol-2-yl)piperidin-1-yl)pyrimidin-4-amine]
7 | 1.5 | 3.6 | – | – | N#Cc1c(N)ncnc1N1CCC(c2nc(-c3ccc(F)c(C(F)(F)F)c3)cn2CCN)CC1 [Compound 158, 4-amino-6-(4-(1-(2-aminoethyl)-4-(4-fluoro-3-(trifluoromethyl)phenyl)-1H-imidazol-2-yl)piperidin-1-yl)pyrimidine-5-carbonitrile]
8 | 1.5 | 15 | – | – | NCCn1cc(-c2ccc(F)c(C(F)(F)F)c2)nc1C1CCN(c2ncnc(N)c2C(N)=O)CC1 [Compound 159, 4-amino-6-(4-(1-(2-aminoethyl)-4-(4-fluoro-3-(trifluoromethyl)phenyl)-1H-imidazol-2-yl)piperidin-1-yl)pyrimidine-5-carboxamide]
9 | 6.7 | 670 | – | – | Cc1cc(-c2cn(CCO)c(C3CCN(c4ncnc(N)c4-c4cn[nH]c4)CC3)n2)ccc1F [Compound 160, 2-(2-(1-(6-amino-5-(1H-pyrazol-4-yl)pyrimidin-4-yl)piperidin-4-yl)-4-(4-fluoro-3-methylphenyl)-1H-imidazol-1-yl)ethanol]
10 | 12.9 | 150 | 12.9 | 150 | Cc1cc(-c2cn(CCNC3CC3)c(C3CCN(c4ncnc(N)c4-c4cn[nH]c4)CC3)n2)ccc1F [Compound 161, 6-(4-(1-(2-(cyclooropylamino)ethyl)-4-(4-fluoro-3-methylphenyl)-1H-imidazol-2-yl)piperidin-1-yl)-5-(1H-pyrazol-4-yl)pyrimidin-4-amine]
11 | 5.9 | 21 | – | – | CNCCn1cc(-c2ccc(F)c(C)c2)nc1C1CCN(c2ncnc(N)c2-c2cn[nH]c2)CC1 [Compound 162, 6-(4-(4-(4-fluoro-3-methylphenyl)-1-(2-(methylamino)ethyl)-1H-imidazol-2-yl)piperidin-1-yl)-5-(1H-pyrazol-4-yl)pyrimidin-4-amine]

More lines, now with the values behind:

Row | SMILES | IC50 ([1]; read-out: IC50 p70S6K) [nM] | IC50 ([2]; read-out: IC50 AKT) [nM] | IC50 ([1]; read-out: IC50 (p70S6K enzyme)) [nM] | IC50 ([2]; read-out: IC50 (AKT enzyme)) [nM]
12 | NC(=O)c1c(N)ncnc1N1CCC(c2nc(-c3ccccc3)cn2CCN2CCC2)CC1 [Compound 136, 4-amino-6-(4-(1-(2-(azetidin-1-yl)ethyl)-4-phenyl-1H-imidazol-2-yl)piperidin-1-yl)pyrimidine-5-carboxamide] | 8.4 | 1900 | – | –
13 | N#Cc1c(N)ncnc1N1CCC(c2nc(-c3ccc(F)c(C(F)(F)F)c3)cn2C2CCNC2)CC1 (centres unmarked) [Compound 137, 4-amino-6-(4-(4-(4-fluoro-3-(trifluoromethyl)phenyl)-1-(pyrrolidin-3-yl)-1H-imidazol-2-yl)piperidin-1-yl)pyrimidine-5-carbonitrile] | 2.7 | 11 | – | –
14 | NC(=O)c1c(N)ncnc1N1CCC(c2nc(-c3ccc(F)c(C(F)(F)F)c3)cn2C2CCNC2)CC1 (centres unmarked) [Compound 138, 4-amino-6-(4-(4-(4-fluoro-3-(trifluoromethyl)phenyl)-1-(pyrrolidin-3-yl)-1H-imidazol-2-yl)piperidin-1-yl)pyrimidine-5-carboxamide] | 1.7 | 100 | – | –
15 | CCc1c(N)ncnc1N1CCC(c2nc(-c3ccc(F)c(C(F)(F)F)c3)cn2CCN)CC1 [Compound 139, 6-(4-(1-(2-aminoethyl)-4-(4-fluoro-3-(trifluoromethyl)phenyl)-1H-imidazol-2-yl)piperidin-1-yl)-5-ethylpyrimidin-4-amine] | 1.1 | 6.6 | – | –
16 | NC(=O)c1c(N)ncnc1N1CCC(c2nc(-c3ccc(F)c(C(F)(F)F)c3)cn2CC2CNC2)CC1 [Compound 140, 4-amino-6-(4-(1-(azetidin-3-ylmethyl)-4-(4-fluoro-3-(trifluoromethyl)phenyl)-1H-imidazol-2-yl)piperidin-1-yl)pyrimidine-5-carboxamide] | 2.2 | 27 | – | –
17 | N#Cc1c(N)ncnc1N1CCC(c2nc(-c3ccc(F)c(C(F)(F)F)c3)cn2CC2CNC2)CC1 [Compound 141, 4-amino-6-(4-(1-(azetidin-3-ylmethyl)-4-(4-fluoro-3-(trifluoromethyl)phenyl)-1H-imidazol-2-yl)piperidin-1-yl)pyrimidine-5-carbonitrile] | 13 | 64.5 | – | –
18 | N#Cc1c(N)ncnc1N1CCC(c2nc(-c3ccc(F)c(C(F)(F)F)c3)cn2C2CNC2)CC1 [Compound 142, 4-amino-6-(4-(1-(azetidin-3-yl)-4-(4-fluoro-3-(trifluoromethyl)phenyl)-1H-imidazol-2-yl)piperidin-1-yl)pyrimidine-5-carbonitrile] | 6.4 | 240 | – | –
19 | NC(=O)c1c(N)ncnc1N1CCC(c2nc(-c3ccc(F)c(C(F)(F)F)c3)cn2C2CNC2)CC1 [Compound 143, 4-amino-6-(4-(1-(azetidin-3-yl)-4-(4-fluoro-3-(trifluoromethyl)phenyl)-1H-imidazol-2-yl)piperidin-1-yl)pyrimidine-5-carboxamide] | 16 | 670 | – | –
20 | Nc1ncnc(N2CCC(c3nc(-c4ccnc(C(F)(F)F)c4)cn3CCN3CCC3)CC2)c1Cl [Compound 144, 6-(4-(1-(2-(azetidin-1-yl)ethyl)-4-(2-(trifluoromethyl)pyridin-4-yl)-1H-imidazol-2-yl)piperidin-1-yl)-5-chloropyrimidin-4-amine] | 1.1 | 2.5 | – | –
21 | NC(=O)c1c(N)ncnc1N1CCC(c2nc(-c3cn[nH]c3)cn2CCN2CCC2)CC1 [Compound 145, 4-amino-6-(4-(1-(2-(azetidin-1-yl)ethyl)-4-(1H-pyrazol-4-yl)-1H-imidazol-2-yl)piperidin-1-yl)pyrimidine-5-carboxamide] | 53 | 2200 | – | –
22 | N#Cc1c(N)ncnc1N1CCC(c2nc(-c3ccc(F)c(C(F)(F)F)c3)cn2C[C@@H]2CCN2)CC1 [Compound 146, (S)-4-amino-6-(4-(1-(azetidin-2-ylmethyl)-4-(4-fluoro-3-(trifluoromethyl)phenyl)-1H-imidazol-2-yl)piperidin-1-yl)pyrimidine-5-carbonitrile] | 3.8 | 31 | – | –
23 | N#Cc1c(N)ncnc1N1CCC(c2nc(-c3ccc(F)c(C(F)(F)F)c3)cn2CC2CCCN2)CC1 (centres unmarked) [Compound 147, 4-amino-6-(4-(4-(4-fluoro-3-(trifluoromethyl)phenyl)-1-(pyrrolidin-2-ylmethyl)-1H-imidazol-2-yl)piperidin-1-yl)pyrimidine-5-carbonitrile] | 1.8 | 2.9 | – | –
24 | Nc1ncnc(N2CCC(c3nc(-c4ccc(F)c(C(F)(F)F)c4)cn3CC3CNC3)CC2)c1Cl [Compound 148, 6-(4-(1-(azetidin-3-ylmethyl)-4-(4-fluoro-3-(trifluoromethyl)phenyl)-1H-imidazol-2-yl)piperidin-1-yl)-5-chloropyrimidin-4-amine] | 4.8 | 16.5 | – | –
25 | Nc1ncnc(N2CCC(c3nc(-c4ccc(F)c(C(F)(F)F)c4)cn3C[C@@H]3CCN3)CC2)c1Cl [Compound 149, (S)-6-(4-(1-(azetidin-2-ylmethyl)-4-(4-fluoro-3-(trifluoromethyl)phenyl)-1H-imidazol-2-yl)piperidin-1-yl)-5-chloropyrimidin-4-amine] | 4.8 | 38 | – | –
26 | NC(=O)c1c(N)ncnc1N1CCC(c2nc(-c3ccc(F)c(C(F)(F)F)c3)cn2C[C@@H]2CCN2)CC1 [Compound 150, (S)-4-amino-6-(4-(1-(azetidin-2-ylmethyl)-4-(4-fluoro-3-(trifluoromethyl)phenyl)-1H-imidazol-2-yl)piperidin-1-yl)pyrimidine-5-carboxamide] | 10 | 220 | – | –
27 | CCc1c(N)ncnc1N1CCC(c2nc(-c3ccc(F)c(C(F)(F)F)c3)cn2CC2CNC2)CC1 [Compound 151, 6-(4-(1-(azetidin-3-ylmethyl)-4-(4-fluoro-3-(trifluoromethyl)phenyl)-1H-imidazol-2-yl)piperidin-1-yl)-5-ethylpyrimidin-4-amine] | 2.2 | 19 | – | –
